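The compound was tested at five concentrations on cells cultured in 96-well plates, with a 48-hour exposure period. At the TGI there is no net growth.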
How the values were obtained:
Experiment in all cases: NCI anticancer screen, dose series, 48 h
[1] = test system: BT-549 breast
[2] = test system: OVCAR-4 ovarian
[3] = test system: MCF7 breast
[4] = test system: OVCAR-5 ovarian
[5] = test system: A498 renal
[6] = test system: SK-MEL-5 melanoma
[7] = test system: EKVX NSCLC
[8] = test system: SK-MEL-2 melanoma
[9] = test system: NCI-H522 lung
[10] = test system: HCT-116 colon
[11] = test system: HOP-62 NSCLC
[12] = test system: MALME-3M melanoma
[13] = test system: HS 578T breast
[14] = test system: A549 NSCLC
[15] = test system: 786-0 renal
[16] = test system: CCRF-CEM leukemia
[17] = test system: PC-3 prostate
[18] = test system: SK-OV-3 ovarian
[19] = test system: TK-10 renal
[20] = test system: OVCAR-3 ovarian
[21] = test system: UO-31 renal
[22] = test system: HT29 colon
[23] = test system: T-47D breast
[24] = test system: HL-60(TB) leukemia
[25] = test system: HOP-92 NSCLC
[26] = test system: HCT-15 colon
[27] = test system: U251 CNS
[28] = test system: OVCAR-8 ovarian
[29] = test system: CAKI-1 renal
[30] = test system: SW-620 colon
[31] = test system: HCC-2998 colon
[32] = test system: COLO 205 colon
[33] = test system: UACC-257 melanoma
[34] = test system: NCI-H460 lung
[35] = test system: MDA-MB-231 breast
[36] = test system: UACC-62 melanoma
[37] = test system: IGROV1 ovarian
[38] = test system: SF-539 CNS
[39] = test system: RXF 393 renal
[40] = test system: MDA-N
[41] = test system: NCI-H226 lung
[42] = test system: MOLT-4 leukemia
[43] = test system: SNB-75 CNS
[44] = test system: MDA-MB-435
[45] = test system: NCI-H23 lung
[46] = test system: ACHN renal
[47] = test system: SN12C renal
[48] = test system: KM12 colon
[49] = test system: SF-268 CNS
[50] = test system: SNB-19 CNS
[51] = test system: NCI/ADR-RES ovarian
[52] = test system: SF-295 CNS
[53] = test system: M14 melanoma
[54] = test system: LOX IMVI melanoma
[55] = test system: DU-145 prostate
[56] = test system: SR leukemia
[57] = test system: K-562 leukemia
[58] = test system: RPMI-8226 leukemia
[59] = test system: SK-MEL-28 melanoma

For `COc1cc2ccc1OCc1cccc(n1)COc1ccc(cc1OC)C=Nc1ccc(cc1)N=C2`, the TGI [1] was > 100 µM, the TGI [2] was > 100 µM and the TGI [3] was > 100 µM. The TGI [4] was > 100 µM, the TGI [5] was > 100 µM and the TGI [6] was > 100 µM. For the same compound, the TGI [7] was > 100 µM, the TGI [8] was > 100 µM and the TGI [9] was > 100 µM. For the same compound, the TGI [10] was > 100 µM, the TGI [11] was > 100 µM and the TGI [12] was > 100 µM. The TGI [13] was > 100 µM, the TGI [14] was > 100 µM and the TGI [15] was > 100 µM. For the same compound, the TGI [16] was > 100 µM, the TGI [17] was > 100 µM and the TGI [18] was > 100 µM. The TGI [19] was > 100 µM, the TGI [20] was > 100 µM and the TGI [21] was > 100 µM. The TGI [22] was > 100 µM, the TGI [23] was > 100 µM and the TGI [24] was > 100 µM. For the same compound, the TGI [25] was > 100 µM, the TGI [26] was > 100 µM and the TGI [27] was > 100 µM. The TGI [28] was > 100 µM, the TGI [29] was > 100 µM and the TGI [30] was > 100 µM. The TGI [31] was > 100 µM, the TGI [32] was > 100 µM and the TGI [33] was > 100 µM. The TGI [34] was > 100 µM, the TGI [35] was > 100 µM and the TGI [36] was > 100 µM. For the same compound, the TGI [37] was > 100 µM, the TGI [38] was > 100 µM and the TGI [39] was > 100 µM. For the same compound, the TGI [40] was > 100 µM, the TGI [41] was > 100 µM and the TGI [42] was > 100 µM. For the same compound, the TGI [43] was > 100 µM, the TGI [44] was > 100 µM and the TGI [45] was > 100 µM. The TGI [46] was > 100 µM, the TGI [47] was > 100 µM and the TGI [48] was > 100 µM. The TGI [49] was > 100 µM, the TGI [50] was > 100 µM and the TGI [51] was > 100 µM. For the same compound, the TGI [52] was > 100 µM, the TGI [53] was > 100 µM and the TGI [54] was > 100 µM. For the same compound, the TGI [55] was > 100 µM, the TGI [56] was > 100 µM and the TGI [57] was > 100 µM.
`COC(=O)C1(Cc2ccc3c(c2)CCC3)Cc2ccccc2C1` was tested, and the TGI [1] was > 100 µM, the TGI [2] was 62.8 µM and the TGI [3] was > 100 µM. The TGI [4] was > 100 µM, the TGI [5] was > 100 µM and the TGI [7] was > 100 µM. For the same compound, the TGI [8] was 72 µM, the TGI [9] was 77.1 µM and the TGI [10] was > 100 µM. The TGI [11] was > 100 µM, the TGI [12] was > 100 µM and the TGI [13] was > 100 µM. For the same compound, the TGI [14] was > 100 µM, the TGI [58] was 54.6 µM and the TGI [15] was > 100 µM. The TGI [16] was 30.8 µM, the TGI [17] was > 100 µM and the TGI [18] was > 100 µM. For the same compound, the TGI [19] was > 100 µM, the TGI [20] was > 100 µM and the TGI [21] was > 100 µM. The TGI [22] was 65 µM, the TGI [23] was > 100 µM and the TGI [24] was 42.4 µM. For the same compound, the TGI [26] was > 100 µM, the TGI [27] was > 100 µM and the TGI [28] was > 100 µM. For the same compound, the TGI [29] was > 100 µM, the TGI [30] was > 100 µM and the TGI [59] was > 100 µM. For the same compound, the TGI [31] was > 100 µM, the TGI [32] was 67.8 µM and the TGI [33] was > 100 µM. For the same compound, the TGI [34] was > 100 µM, the TGI [35] was > 100 µM and the TGI [36] was > 100 µM. The TGI [37] was > 100 µM, the TGI [38] was > 100 µM and the TGI [40] was > 100 µM. For the same compound, the TGI [41] was > 100 µM, the TGI [42] was 31 µM and the TGI [43] was > 100 µM. For the same compound, the TGI [44] was > 100 µM, the TGI [45] was > 100 µM and the TGI [46] was > 100 µM. The TGI [47] was > 100 µM, the TGI [48] was > 100 µM and the TGI [49] was > 100 µM. The TGI [50] was > 100 µM, the TGI [51] was > 100 µM and the TGI [52] was > 100 µM. The TGI [53] was > 100 µM, the TGI [54] was > 100 µM and the TGI [55] was > 100 µM. The TGI [56] was > 100 µM and the TGI [57] was 51.3 µM.
